These results are taken from patent US11603377B2, “MTORC1 modulators and uses thereof” (Aeovian Pharmaceuticals, Inc., priority 2020, dated 2023).

A value given as a limit tells only on which side of the number the result lay.

Experiment [1] has as its target FKBP12 / FRB ternary complex (Homo sapiens (Human), UniProt P42345+P62942). The experiment is described as follows: SPR assay to characterize ternary complex formation with FKBP12 (FRB binding to rapalog-saturated FKBP12). To be noted: FRB dilutions with 100 nM rapalog on immobilized FKBP12. Here is the method:
Example 30: SPR Assay to Characterize Ternary Complex Formation with FKBP12
(§1) Biotinylated avi-FKBP12 was immobilized on a streptavidin chip (Cytiva Series S SA) using a Biacore 8K or 8 k+ (Cytiva). To achieve an immobilization level of 100 RU, 0.3 μg/ml biotinylated avi-FKBP12 were injected for 80 sec at a flow rate of 10 μl/min. Serial dilution of FRB was prepared (12 concentrations, 3-fold dilutions, 0.00011-20 μM) and supplemented with 100 nM of rapalog. A-B-A injection mode was used to ensure saturation immobilized FKBP12 with respective rapalog. 100 nM solution of the respective rapalog was injected before FRB injection for 120 sec and during dissociation for 420 sec. The FRB dilutions were then injected 120 seconds contact time with increasing concentrations. […] 50 mM HEPES pH 7.5, 150 mM NaCl, 2 mM MgCl2, 1 mM DTT, 0.05% Tween-20, 1% DMSO was used as running buffer at a flow rate of 30 μl/min. The multi-cycle kinetics data were fit to a 1:1 binding model to measure the association rate ka (1/Ms), the dissociation rate kd (1/s) and the affinity Kd (M). In case of fast association and dissociation, steady state affinity analysis following the law of mass action was used to determine the affinity Kd (M).
In general terms: SPR reads the build-up and loss of mass on a sensor chip optically.

In experiment [2] the target is mTORC2 (Homo sapiens (Human), UniProt P42345+P62942). The experiment is described as follows: mTORC2 inhibition, AlphaLISA of Phospho-AKT (pAKT pS473) in PC3 cells. It is filed as cell-based. The procedure: Example 32: mTORC1 Inhibition, mTORC2 Inhibition, Cell Lysis, AlphaLISA Experiments, and Data Analysis
mTORC2 inhibition was determined via analysis of phosphorylation level of Phospho-AKT (pAKT pS473) with the corresponding AlphaLISA kit (PerkinElmer, Alpha SF Ultra™ Multiplex p-AKT1/2/3(Ser473)/Total AKT1). PC3 cells were plated on 96 well plates in assay medium (DMEM: Ham's F12, basic (CLS Cell Lines Service GmbH, Cat #820400a), supplemented with additional 10% FBS at 1.20E+06 cells/mL and incubated over-night at 37° C., 5% CO2. On the following day, cells were treated with assay medium (10% FBS) containing increasing compound concentrations (12 points at 3-fold dilutions) and incubated for 6 hours at 37° C., 5% CO2. Thereafter, medium was aspirated and cells were rinsed with PBS. In the following, cells were treated with compound dilutions in starvation medium (DMEM: Ham's F12, basic; without FBS) for further 18 h at 37° C., 5% CO2. Then, immediately prior to cell lysis, cells were treated with 12% FBS for 15 min.
After performing experiments according to mTORC1 and mTORC2 protocols, cells were harvested in lysis buffer supplied with the AlphaLISA kits, additionally enriched with Roche cOmplete™ Protease Inhibitor Cocktail (Cat #CO-RO). Thus, cells were lysed using 50 μL of the lysis buffer and incubated for 60 min at 4° C. while shaking. After centrifugation at 4000 rpm for 5 min, experiments were performed according to the AlphaLISA manufacturer's protocol.
Ten microliters of cell lysates were mixed with the acceptor mix. After incubation for 2 h at room temperature, the donor mix was added. After additional incubation at room temperature for 2 hours, AlphaLISA signal was read on PHERAstar® FSX (BMG Labtech) with AlphaPLEX module.
EC50 values were calculated by ExcelFit standard algorithm.

Experiment [3] addresses FKBP51 (Homo sapiens (Human), UniProt Q13451). The experiment is described as follows: SPR assay to determine binding affinity to FKBP51 (direct binding). Particulars: immobilized biotinylated avi-FKBP51. Here is the method:
Example 29: SPR Assay to Determine Binding Affinity to FKBP51
Biotinylated avi-FKBP51 was immobilized on a streptavidin chip (Cytiva Series S SA) using a Biacore 8K or 8 k+ (Cytiva). To achieve an immobilization level of 2000 RU, 3 μg/ml biotinylated avi-FKBP51 were injected for 360 sec at a flow rate of 10 μl/min. Rapalogs were diluted in DMSO to 100× working concentration. Each Rapalog was 100-fold diluted in 50 mM HEPES pH 7.5, 150 mM NaCl, 2 mM MgCl2, 1 mM DTT, 0.05% Tween-20 and a serial dilution prepared (8 concentrations, 3-fold dilutions, 0.5-1000 nM). […] The compound dilutions were then injected at 100 uL/min for 120 seconds contact time and with 3600 seconds dissociation time with increasing concentrations. 50 mM HEPES pH 7.5, 150 mM NaCl, 2 mM MgCl2, 1 mM DTT, 0.05% Tween-20, 1% DMSO was used as running buffer. Multi-cycle kinetics data were fit to a 1:1 binding model to measure the association rate ka (1/Ms), the dissociation rate kd (1/s) and the affinity Kd (M).

Experiment [4] has as its target mTORC1 (Homo sapiens (Human), UniProt P42345+P62942). The experiment can be described thus: mTORC1 inhibition, AlphaLISA of Phospho-p70 S6 kinase (p70S6K pT389) in PC-3 cells. It is filed as cell-based. Particulars: inhibition of p70S6K pT389 levels.
For experiment [5], the target named is FKBP51 / FRB ternary complex (Homo sapiens (Human), UniProt P42345+Q13451). The experiment can be described thus: SPR assay to characterize ternary complex formation with FKBP51 (FRB binding to rapalog-saturated FKBP51). Particulars: FRB dilutions with 100 nM rapalog on immobilized FKBP51. Here is the method:
Example 31: SPR Assay to Characterize Ternary Complex Formation with FKBP51
as §1, with “Biotinylated avi-FKBP51” for “Biotinylated avi-FKBP12”, “of 200” for “of 100”, “RU, 0.6” for “RU, 0.3”, “biotinylated avi-FKBP51” for “biotinylated avi-FKBP12”, “for 150” for “for 80”

Experiment [6] has as its target FKBP12 (Homo sapiens (Human), UniProt P62942). The experiment is described as follows: SPR assay to determine binding affinity to FKBP12 (direct binding). Particulars: immobilized biotinylated avi-FKBP12. Here is the method: SPR Assay to Determine Binding Affinity to FKBP12.
Biotinylated avi-FKBP12 was immobilized on a streptavidin chip (Cytiva Series S SA) using a Biacore 8K or 8 k+ (Cytiva). To achieve an immobilization level of 1000 RU, 2 μg/ml biotinylated avi-FKBP12 were injected for 100 sec at a flow rate of 10 μl/min. Rapalogs were diluted in DMSO to 100× working concentration. Each Rapalog was 100-fold diluted in 50 mM HEPES pH 7.5, 150 mM NaCl, 2 mM MgCl2, 1 mM DTT, 0.05% Tween-20 and a serial dilution prepared (9 concentrations, 3-fold dilutions, 0.08-500 nM). […] The compound dilutions were then injected at 100 uL/min for 120 seconds contact time in sequence with increasing concentrations. Dissociation was monitored for 3600 seconds. 50 mM HEPES pH 7.5, 150 mM NaCl, 2 mM MgCl2, 1 mM DTT, 0.05% Tween-20, 1% DMSO was used as running buffer. The single-cycle kinetics data were fit to a 1:1 binding model to measure the association rate ka (1/Ms), the dissociation rate kd (1/s) and the affinity Kd (M).

FKBP51, sequence (Q13451 whole entry): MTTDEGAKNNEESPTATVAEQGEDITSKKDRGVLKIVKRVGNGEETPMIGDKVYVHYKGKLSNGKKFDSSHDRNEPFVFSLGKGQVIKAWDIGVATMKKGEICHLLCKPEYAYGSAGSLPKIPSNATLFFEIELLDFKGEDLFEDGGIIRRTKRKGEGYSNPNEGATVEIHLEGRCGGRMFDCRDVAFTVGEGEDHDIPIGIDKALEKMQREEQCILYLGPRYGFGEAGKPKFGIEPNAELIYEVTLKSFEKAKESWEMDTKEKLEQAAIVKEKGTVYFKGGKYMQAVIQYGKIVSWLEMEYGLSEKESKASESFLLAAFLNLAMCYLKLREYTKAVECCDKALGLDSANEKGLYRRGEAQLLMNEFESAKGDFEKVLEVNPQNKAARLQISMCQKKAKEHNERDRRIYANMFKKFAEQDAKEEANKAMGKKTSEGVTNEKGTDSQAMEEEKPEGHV
FKBP12, sequence (P62942 whole entry): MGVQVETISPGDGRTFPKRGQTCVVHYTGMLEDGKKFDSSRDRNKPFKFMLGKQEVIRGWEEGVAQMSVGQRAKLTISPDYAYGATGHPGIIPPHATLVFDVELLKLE

What is called Kd is the concentration at which binding is half-saturated. A lower Kd goes with tighter binding. In general, IC50 refers to the concentration at which inhibition is half-maximal. Low values mean greater potency in that assay, high ones weaker potency in that assay. In the case of `COCCOCCS(=O)(=O)N[C@@H]1C[C@@H]2CC[C@@H](C)[C@@](O)(O2)C(=O)C(=O)N2CCCC[C@H]2C(=O)O[C@H]([C@H](C)C[C@@H]2CC[C@@H](O)[C@H](OC)C2)CC(=O)[C@H](C)/C=C(\C)[C@@H](O)[C@@H](OC)C(=O)[C@H](C)C[C@H](C)/C=C/C=C/C=C/1C` [Compound 8], the Kd was 300 to 800 nM in experiment [1], 10 to 100 nM in experiment [3], 300 to 800 nM in experiment [5] and less than 0.3 nM in experiment [6]. For the same molecule, in experiment [2], the “mTORC2 % inhibition at 1 uM” value is “B (B>20% and less than 40% inhibition at 1 uM)”. The same molecule showed an IC50 in experiment [4] of 0.1 to 0.8 nM.

Take `COCCOCCS(=O)(=O)N[C@H]1C[C@@H]2CC[C@@H](C)[C@@](O)(O2)C(=O)C(=O)N2CCCC[C@H]2C(=O)O[C@H]([C@H](C)C[C@@H]2CC[C@@H](O)[C@H](OC)C2)CC(=O)[C@H](C)/C=C(\C)[C@@H](O)[C@@H](OC)C(=O)[C@H](C)C[C@H](C)/C=C/C=C/C=C/1C` [Compound 9]: the Kd in experiment [1] is less than 300 nM; in experiment [3], less than 10 nM; in experiment [5] it was less than 300 nM; in experiment [6] it was less than 0.3 nM. The “mTORC2 % inhibition at 1 uM” value in experiment [2] is “C (C≥40% and less than 60% inhibition at 1 uM)”. The molecule also gave an IC50 in experiment [4] of less than 0.1 nM.

For the molecule `COC1C(=O)C(C)CC/C=C/C=C/C=C(\C)[C@H](NS(=O)(=O)CCO)C[C@H]2CC[C@H](C)[C@](O)(O2)C(=O)C(=O)N(C)C(C)C(=O)OC([C@H](C)C[C@@H]2CC[C@@H](OC3CC3)[C@H](OC)C2)CC(=O)C(C)/C=C(\C)C1O` (stereo partly drawn) [Compound 10], the Kd lay in the range of 300 to 800 nM in experiment [1], 10 to 100 nM in experiment [3], 300 to 800 nM in experiment [5] and 0.3 to 1 nM in experiment [6]. In addition, the “mTORC2 % inhibition at 1 uM” value in experiment [2] is recorded as “A (A ≤20% inhibition at 1 micro Molar (uM))”. The same molecule returned an IC50 in experiment [4] of 0.1 to 0.8 nM.

Regarding `COC1C(=O)C(C)CC/C=C/C=C/C=C(\C)[C@@H](NS(=O)(=O)CCO)C[C@H]2CC[C@H](C)[C@](O)(O2)C(=O)C(=O)N(C)C(C)C(=O)OC([C@H](C)C[C@@H]2CC[C@@H](OC3CC3)[C@H](OC)C2)CC(=O)C(C)/C=C(\C)C1O` (stereo partly drawn) [Compound 11], the Kd in experiment [1] fell in the range of 300 to 800 nM; in experiment [3] it was 10 to 100 nM; in experiment [5], 300 to 800 nM; in experiment [6], 0.3 to 1 nM. Besides, the “mTORC2 % inhibition at 1 uM” value in experiment [2] is recorded as “A (A ≤20% inhibition at 1 micro Molar (uM))”. This molecule also displayed an IC50 in experiment [4] of 0.1 to 0.8 nM.

As for `CCOC(=O)CS(=O)(=O)NC1C[C@H]2CC[C@H](C)[C@](O)(O2)C(=O)C(=O)N(C)C(C)C(=O)OC([C@H](C)C[C@@H]2CC[C@@H](OC3CC3)[C@H](OC)C2)CC(=O)C(C)/C=C(\C)C(O)C(OC)C(=O)C(C)CC/C=C/C=C/C=C/1C` (stereo partly drawn) [Compound 12], the Kd lay within 300 to 800 nM in experiment [1], 10 to 100 nM in experiment [3], 300 to 800 nM in experiment [5] and 0.3 to 1 nM in experiment [6]. Moreover, the “mTORC2 % inhibition at 1 uM” value in experiment [2] is on record as “A (A ≤20% inhibition at 1 micro Molar (uM))”. Also, the IC50 in experiment [4] is greater than 0.8 nM.

In the case of `COC1C(=O)C(C)CC/C=C/C=C/C=C(\C)C(NS(=O)(=O)CCCS(=O)(=O)O)C[C@H]2CC[C@H](C)[C@](O)(O2)C(=O)C(=O)N(C)C(C)C(=O)OC([C@H](C)C[C@@H]2CC[C@@H](OC3CC3)[C@H](OC)C2)CC(=O)C(C)/C=C(\C)C1O` (stereo partly drawn) [Compound 18], the Kd in experiment [1] fell in the range of 300 to 800 nM; in experiment [3], 10 to 100 nM; in experiment [5], 300 to 800 nM; in experiment [6] it was 0.3 to 1 nM. For the same molecule, in experiment [2], the “mTORC2 % inhibition at 1 uM” value was “A (A ≤20% inhibition at 1 micro Molar (uM))”. The IC50 in experiment [4] was 0.1 to 0.8 nM.

Take `CO[C@@H]1C[C@H](C[C@@H](C)[C@@H]2CC(=O)[C@H](C)/C=C(\C)[C@@H](O)[C@@H](OC)C(=O)[C@H](C)C[C@H](C)/C=C/C=C/C=C(\C)[C@H](NS(=O)(=O)CC3CCCCC3)C[C@@H]3CC[C@@H](C)[C@@](O)(O3)C(=O)C(=O)N3CCCC[C@H]3C(=O)O2)CC[C@H]1O` [Compound 19]: the Kd in experiment [1] is greater than 800 nM; in experiment [3], greater than 100 nM; in experiment [5], greater than 800 nM; in experiment [6] it was 0.3 to 1 nM. Also, in experiment [2], the “mTORC2 % inhibition at 1 uM” value is “B (B>20% and less than 40% inhibition at 1 uM)”. Further, the IC50 in experiment [4] was greater than 0.8 nM.

On to `CO[C@@H]1C[C@H](C[C@@H](C)[C@@H]2CC(=O)[C@H](C)/C=C(\C)[C@@H](O)[C@@H](OC)C(=O)[C@H](C)C[C@H](C)/C=C/C=C/C=C(\C)[C@@H](NS(=O)(=O)CC3CCCCC3)C[C@@H]3CC[C@@H](C)[C@@](O)(O3)C(=O)C(=O)N3CCCC[C@H]3C(=O)O2)CC[C@H]1O` [Compound 20], for which the Kd was 300 to 800 nM in experiment [1], greater than 100 nM in experiment [3], greater than 800 nM in experiment [5] and less than 0.3 nM in experiment [6]. Also, in experiment [2], the “mTORC2 % inhibition at 1 uM” value was “B (B>20% and less than 40% inhibition at 1 uM)”. The molecule also came in with an IC50 in experiment [4] of 0.1 to 0.8 nM.
